According to patent US20230406859A1, “METHOTREXATE ANALOGS AND METHODS OF USE” (The United States of America, as represented by the …, priority 2020, published 2023):
Read-outs that look alike come from different tables or passages of the source.

How the values were obtained:
Format in all cases: cell-based
DHFR [1] = molecular target: T1, DHFR (Homo sapiens, UniProt P00374); conditions: HBL1 cells, Western blot
T1 construct: Western blot detection of DHFR levels after treatment of HBL1 cells for 16 h; endogenous in cells; host or cells: HBL1 lymphoma cell line
T1 sequence (P00374 1-187): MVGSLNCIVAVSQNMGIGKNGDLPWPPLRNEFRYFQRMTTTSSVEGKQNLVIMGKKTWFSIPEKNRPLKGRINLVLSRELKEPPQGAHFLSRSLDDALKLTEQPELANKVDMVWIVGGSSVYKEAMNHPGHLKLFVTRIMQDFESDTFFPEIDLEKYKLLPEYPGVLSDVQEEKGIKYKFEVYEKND
Text: (§1) Human embryonic kidney HEK293T cells and immortalized fibroblasts were maintained in DMEM (Gibco) supplemented with 10% fetal bovine serum (Hyclone), 2 mmol/L L-glutamine, Hepes (Gibco), and 100 U/mL penicillin/streptomycin (Invitrogen). The lymphoma cell line HBL1 was maintained in RPMI (Life Technology) supplemented with 5% fetal bovine serum (Hyclone), 2 mmol/L 1-glutamine, Hepes (Gibco), and 100 U/mL penicillin/streptomycin (Invitrogen).
Western blotting: Cells at confluence from 12-well plate treatments were washed with PBS and lysed in 75 μL/well NP40 lysis buffer (Cell Signaling), subjected to agitation and centrifugation. Approximately 100 μg of total protein was used per analysis. […] Blots were first incubated with 1:2000 dilution of anti-human DHFR antibody (Abcam, ab124814, host rabbit) for 16 h at 4° C. with shaking, washed 3× with TBS-T and incubated with 1:2000 dilution of anti-human β-actin primary antibody (Cell Signaling, host mouse) for 1 h at ambient temperature with shaking. Blots were then washed 3× with TBS-T and incubated with 1:5000 HRP secondary antibody (Novex, anti-Rabbit IgG raised in Goat, 1 mg/ml) for 1 h at ambient temperature, then washed with 3×TBS-T and developed with Pierce ECL Dura reagent for 5 min. Immunoreactive bands were imaged on a ChemiDoc Imaging System (Bio-Rad) with 20 s chemiluminescence exposure. The molecular weight marker ladder was imaged with colorimetric auto-exposure, and both images merged.

HBL1 cells = experiment: CellTiter-Glo assay of cellular ATP levels in HBL1 cells (16 h)
Protocol: Cell Culture Methods: Cells (HBL1, immortalized fibroblasts from a healthy donor, or 293T) were seeded at the numbers indicated in a 12-well plate in 500 ul. […] Human embryonic kidney HEK293T cells and immortalized fibroblasts were maintained in DMEM (Gibco) supplemented with 10% fetal bovine serum (Hyclone), 2 mmol/L L-glutamine, Hepes (Gibco), and 100 U/mL penicillin/streptomycin (Invitrogen). The lymphoma cell line HBL1 was maintained in RPMI (Life Technology) supplemented with 5% fetal bovine serum (Hyclone), 2 mmol/L 1-glutamine, Hepes (Gibco), and 100 U/mL penicillin/streptomycin (Invitrogen). Cells were cultured in incubators maintained at 37° C., with 5% CO2 and 85% humidity.
(§2) Cell-Titer-Glo viability assays: Five μL of cells (2500 cells) from the 12-well plate culture were plated into white 1536-well plates (Greiner, Monroe, NC, 789173-F) in 6 replicates. CellTiter-Glo Luminescent Cell Viability Assay (CTG) (Promega, G7572), 2.5 μL/well reagent was added with a BioRAPTR FRD (Beckman Coulter, Sykesville, MD), plates were incubated in the dark at ambient temperature for 10 min, and luminescence measured with a ViewLux 1430 Ultra HTS (Perkin Elmer, Waltham, MA).

[2] = molecular target: T2, human DHFR-HiBiT fusion protein (Homo sapiens, UniProt P00374); experiment: DHFR-HiBiT assay (high-throughput DHFR abundance) in HBL1 cells; conditions: HBL1, 24 h, read-out: efficacy (%)
T2 construct: expressed in transfected cells; host or cells: HBL1 cells retrovirally infected with pBMN-Ires-Lyt-2 carrying DHFR-HiBiT
T2 sequence (P00374 with tags, fused parts or gaps): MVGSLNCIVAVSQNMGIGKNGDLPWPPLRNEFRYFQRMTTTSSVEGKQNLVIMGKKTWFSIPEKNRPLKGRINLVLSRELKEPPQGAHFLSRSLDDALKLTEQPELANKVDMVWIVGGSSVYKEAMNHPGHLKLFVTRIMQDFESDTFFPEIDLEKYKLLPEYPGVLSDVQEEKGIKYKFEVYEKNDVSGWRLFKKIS
Text: The human DHFR-HiBiT construct was synthetized (Bio Basic) and cloned into the retroviral vector pBMN-Ires-Lyt-2 (provided by G. Nolan, Stanford University, Stanford, CA) which expresses the coding region of mouse CD8a (Lyt-2) using the restriction sites BamHI/XhoI. All constructs were sequenced to validate authenticity. Infected cells were positively selected based on murine CD8a expression using magnetic beads (Miltenyi Biotech).
as §1, with “Cell culture: Human” for “Human”, “cells” for “cells and immortalized fibroblasts”, “1-glutamine, HEPES (Gibco)” for “L-glutamine, Hepes (Gibco),”, “were” for “was”, “L-glutamine, HEPES (Gibco)” for “1-glutamine, Hepes (Gibco),”
Transfection and retroviral infections: Transfections were performed using Lipofectamine 2000 (Invitrogen) according to the manufacturer's protocol. For retroviral infections, viruses were produced in HEK293T cells and used to infect HBL1 cell line. […] Supernatants containing the retrovirus were collected and filtered at 48- and 72-hours post-transfection. HBL1 cells were centrifuged and then resuspended with the retroviral supernatant with 8 μg/ml of polybrene. The cells were spin-infected twice on consecutive days at 2,500 rpm, at RT, for 90 minutes.
Lytic HiBiT Detection: Cells were plated in solid white 1536-well tissue culture plates (Greiner), at the concentration of 2000 cells/well. After treatment, an equal volume of Nano-Glo HiBiT Lytic Reagent (Promega) containing the substrate furimazine and Large BiT (LgBiT) was added to the cells according to the manufacturer's protocol. Cells were incubated for 10 min at room temperature, and luminescence was measured using a Perkin Elmer ViewLux microplate imager with 30 seconds of exposure time.

HBL1 cell line = experiment: CellTiter-Glo cell viability (cytotox), HBL1 cell line, 72 hours; conditions: HBL1 cell line, CellTiter-Glo; unit inferred
Protocol: as §2, with “CellTiter-Glo” for “Cell-Titer-Glo”

DHFR [3] = molecular target: T3, DHFR (Homo sapiens, UniProt P00374); experiment: Western blot for DHFR in MTX-resistant HBL1 cell line; design: dose or concentration left out as unconfirmed
T3 construct: endogenous in cells
T3 sequence (P00374 2-187): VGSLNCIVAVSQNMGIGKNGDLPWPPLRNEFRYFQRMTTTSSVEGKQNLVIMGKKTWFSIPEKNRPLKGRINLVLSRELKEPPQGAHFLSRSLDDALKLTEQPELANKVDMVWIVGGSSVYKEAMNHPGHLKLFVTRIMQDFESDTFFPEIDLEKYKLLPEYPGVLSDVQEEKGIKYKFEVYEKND
Protocol: Protein expression analysis: Cells were collected and homogenized in lysis buffer (20 mM Tris-HCl (pH 7.5), 150 mM NaCl, 1 mM Na2EDTA, 1 mM EGTA 1% Triton, 2.5 mM sodium pyrophosphate) with freshly added protease inhibitors (50 mM HEPES, pH 7.6, 150 mM NaCl, 20 mM EDTA, 10 mM sodium orthovanadate (Vanadate, Na3VO4), 100 mM NaF, 2% Triton X-100, 10 μg/ml aprotinin, 10 μg/ml leupeptin, 0.5 mm phenylmethyl sulfonyl fluoride). […] The membrane was immunoblotted with rabbit polyclonal anti-DHFR or mouse anti-β-actin antibodies. The immune complexes were detected by horseradish peroxidase-conjugated secondary antibodies (Thermo Scientific) and developed using a ChemiDoc MP Imager (Bio-Rad). To detect HiBiT-tagged proteins, the membrane was rinsed for 1 h in TBST and then incubated in LgBiT/buffer solution overnight. Nano-Glo® Luciferase Assay Substrate furimazine was added and incubated 5 minutes, and the blot was exposed on the imager.

[4] = molecular target: thymidylate synthase (TS) (Homo sapiens, UniProt P04818); experiment: Western blot of thymidylate synthase levels in HBL1 cells; design: Western blot detection of folate-cofactor dependent enzyme levels after treatment of HBL1 cells; endogenous in cells; host or cells: HBL1 lymphoma cell line; conditions: 1 μM, 16 h
thymidylate synthase (TS), sequence (P04818 2-313 limits assumed): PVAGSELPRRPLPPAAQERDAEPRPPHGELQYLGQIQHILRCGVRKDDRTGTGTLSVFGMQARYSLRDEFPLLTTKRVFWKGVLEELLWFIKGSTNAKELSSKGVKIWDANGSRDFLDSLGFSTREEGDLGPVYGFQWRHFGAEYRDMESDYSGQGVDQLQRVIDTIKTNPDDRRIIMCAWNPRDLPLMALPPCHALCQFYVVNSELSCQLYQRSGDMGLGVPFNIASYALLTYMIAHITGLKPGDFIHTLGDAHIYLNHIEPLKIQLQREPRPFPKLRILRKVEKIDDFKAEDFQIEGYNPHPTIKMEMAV

## CN(Cc1cnc2nc(N)nc(N)c2n1)c1ccc(C(=O)N[C@@H](CCC(=O)NCCOCCOCCOCCNC(=O)COc2cccc3c2C(=O)N(C2CCC(=O)NC2=O)C3=O)C(=O)O)cc1 (stereo partly drawn) [NCGC00685965, (19S)-19-(4-(((2,4-diaminopteridin-6-yl)methyl)(methyl)amino)benzamido)-1-((2-(2,6-dioxopiperidin-3-yl)-1,3-dioxoisoindolin-4-yl)oxy)-2,16-dioxo-6,9,12-trioxa-3,15-diazaicosan-20-oic acid]
DHFR [1]
  effect on DHFR protein levels: remained capable of depleting cellular DHFR
DHFR [1]; listed as MTX-PROTAC 9
  effect on DHFR protein levels: robust DHFR depletion
HBL1 cells
  effect on cellular ATP levels (acute cellular toxicity): did not significantly alter ATP levels even up to 1 μM
[2]
  Dmax: 64.2%
HBL1 cell line
  IC50: 5.91 µM
DHFR [3]
  depletion of cellular DHFR: remained capable of depleting cellular DHFR
[4]
  effect on TS protein level: slight increase in TS
